The values below come from US10800777B2, “Polymorphic forms of VENCLEXTA” (Mylan Laboratories Limited, priority 2016, dated 2020).

The nature of this series: Storage stability of venetoclax polymorphs, analyzed by PXRD for polymorph integrity. Format: physicochemical. How it is done:
The present invention provides new polymorphs of venetoclax which may be characterized by powder X-ray diffraction (PXRD). Thus, samples of each disclosed polymorph were analyzed by PXRD on a BRUKER D-8 Discover powder diffractometer equipped with a goniometer of θ/2θ configuration and Lynx Eye detector. The Cu-anode X-ray tube was operated at 40 kV and 30 mA. The experiments were conducted over the […] of 2.0°-50.0°, 0.030° step size, and 0.4 seconds step time.
Thus, the stability of samples of amorphous venetoclax, as well as crystalline forms M9, M10, and M21 were stored at 40° C./75% relative humidity (RH) and at 25° C./60% relative humidity (RH) for 3 months. The samples were analyzed by PXRD for polymorph integrity.

Entries after “also recorded” stand apart in the source; their conditions may differ.

On to `CC1(C)CCC(CN2CCN(c3ccc(C(=O)NS(=O)(=O)c4ccc(NCC5CCOCC5)c([N+](=O)[O-])c4)c(Oc4cnc5[nH]ccc5c4)c3)CC2)=C(c2ccc(Cl)cc2)C1` [form M9, 4-[4-[[2-(4-chlorophenyl)-4,4-dimethylcyclohexen-1-yl]methyl]piperazin-1-yl]-N-[3-nitro-4-(oxan-4-ylmethylamino)phenyl]sulfonyl-2-(1H-pyrrolo[2,3-b]pyridin-5-yloxy)benzamide], for which the “PXRD (polymorph integrity)” value is on record as “no change in PXRD pattern; also recorded: Stable” (at 25° C./60% RH, 3 months, listed as M9); “Crystalline” (at 25° C./60% RH, Initial, listed as M9); “no change in PXRD pattern; also recorded: Stable” (at 40° C./75% RH, 3 months, listed as M9); “Crystalline” (at 40° C./75% RH, Initial, listed as M9).
With `CC1(C)CCC(CN2CCN(c3ccc(C(=O)NS(=O)(=O)c4ccc(NCC5CCOCC5)c([N+](=O)[O-])c4)c(Oc4cnc5[nH]ccc5c4)c3)CC2)=C(c2ccc(Cl)cc2)C1` [form M10, 4-[4-[[2-(4-chlorophenyl)-4,4-dimethylcyclohexen-1-yl]methyl]piperazin-1-yl]-N-[3-nitro-4-(oxan-4-ylmethylamino)phenyl]sulfonyl-2-(1H-pyrrolo[2,3-b]pyridin-5-yloxy)benzamide], the “PXRD (polymorph integrity)” value by setting is: (at 25° C./60% RH, 3 months, listed as M10) “no change in PXRD pattern; also recorded: Stable”; (at 25° C./60% RH, Initial, listed as M10) “Crystalline”; (at 40° C./75% RH, 3 months, listed as M10) “no change in PXRD pattern; also recorded: Stable”; (at 40° C./75% RH, Initial, listed as M10) “Crystalline”.
For the compound `CC1(C)CCC(CN2CCN(c3ccc(C(=O)NS(=O)(=O)c4ccc(NCC5CCOCC5)c([N+](=O)[O-])c4)c(Oc4cnc5[nH]ccc5c4)c3)CC2)=C(c2ccc(Cl)cc2)C1` [Amorphous, 4-[4-[[2-(4-chlorophenyl)-4,4-dimethylcyclohexen-1-yl]methyl]piperazin-1-yl]-N-[3-nitro-4-(oxan-4-ylmethylamino)phenyl]sulfonyl-2-(1H-pyrrolo[2,3-b]pyridin-5-yloxy)benzamide], the “PXRD (polymorph integrity)” value reads like this: (at 25° C./60% RH, 1 months) “Stable”; (at 25° C./60% RH, 2 months) “Stable”; (at 25° C./60% RH, 3 months) “Stable”; (at 25° C./60% RH, 3 months, listed as amorphous venetoclax) “no change in PXRD pattern”; (at 25° C./60% RH, 15 days) “Stable”; (at 25° C./60% RH, Initial) “Amorphous”. Also, the “PXRD (polymorph integrity)” value by setting is: (at 40° C./75% RH, 1 months) “Stable”; (at 40° C./75% RH, 2 months) “Stable”; (at 40° C./75% RH, 3 months) “Stable”; (at 40° C./75% RH, 3 months, listed as amorphous venetoclax) “no change in PXRD pattern”; (at 40° C./75% RH, 15 days) “Stable”; (at 40° C./75% RH, Initial) “Amorphous”.
As to `CC1(C)CCC(CN2CCN(c3ccc(C(=O)NS(=O)(=O)c4ccc(NCC5CCOCC5)c([N+](=O)[O-])c4)c(Oc4cnc5[nH]ccc5c4)c3)CC2)=C(c2ccc(Cl)cc2)C1` [form M21, 4-[4-[[2-(4-chlorophenyl)-4,4-dimethylcyclohexen-1-yl]methyl]piperazin-1-yl]-N-[3-nitro-4-(oxan-4-ylmethylamino)phenyl]sulfonyl-2-(1H-pyrrolo[2,3-b]pyridin-5-yloxy)benzamide], the “PXRD (polymorph integrity)” value runs as follows: (at 25° C./60% RH, 3 months, listed as M21) “no change in PXRD pattern; also recorded: Stable”; (at 25° C./60% RH, Initial, listed as M21) “Crystalline”; (at 40° C./75% RH, 3 months, listed as M21) “no change in PXRD pattern; also recorded: Stable”; (at 40° C./75% RH, Initial, listed as M21) “Crystalline”.
